{
  "source": "Sander's compilation of Henry's law constants (doi:10.1021/je049850a)",
  "origin": "cited, not measured here",
  "data": [
    {"test": "Henry solubility constant Hcp at 298.15 K (mol/(m3 Pa))", "conditions": "reference: Plyasunov et al. (2004); cited value", "values": [
      {"compound": "CCCCCCOC(C)=O", "note": "[hexyl ethanoate]", "Henry solubility constant Hcp": 0.017},
      {"compound": "CCOC(=O)C(C)CC", "note": "(stereo not drawn) [ethyl 2-methylbutanoate]", "Henry solubility constant Hcp": 0.014},
      {"compound": "CCOC=O", "note": "[ethyl methanoate]", "Henry solubility constant Hcp": 0.035},
      {"compound": "CC(C)COC(=O)C(C)C", "note": "[2-methylpropyl 2-methylpropanoate]", "Henry solubility constant Hcp": 0.0078},
      {"compound": "CCOC(=O)C(C)(C)C", "note": "[ethyl 2,2-dimethylpropanoate]", "Henry solubility constant Hcp": 0.0057},
      {"compound": "CCCCOC(=O)CCC", "note": "[butyl butanoate]", "Henry solubility constant Hcp": 0.016},
      {"compound": "CCC(=O)OCC(C)C", "note": "[(2-methylpropyl)-propanoate]", "Henry solubility constant Hcp": 0.015},
      {"compound": "CC(=O)OCC(C)C", "note": "[2-methylpropyl ethanoate]", "Henry solubility constant Hcp": 0.024},
      {"compound": "CCCCCC(=O)OCC", "note": "[ethyl hexanoate]", "Henry solubility constant Hcp": 0.019},
      {"compound": "CCCCCCCCCC(=O)OCC", "note": "[ethyl decanoate]", "Henry solubility constant Hcp": 0.012},
      {"compound": "CCCOC(=O)CCC", "note": "[propyl butanoate]", "Henry solubility constant Hcp": 0.022},
      {"compound": "CCCCCOC(=O)CC", "note": "[pentyl propanoate]", "Henry solubility constant Hcp": 0.019},
      {"compound": "CCCCCCCC(=O)OC", "note": "[methyl octanoate]", "Henry solubility constant Hcp": 0.012},
      {"compound": "CCOC(=O)C(C)C", "note": "[ethyl 2-methylpropanoate]", "Henry solubility constant Hcp": 0.017},
      {"compound": "COC(=O)C(C)(C)C", "note": "[methyl 2,2-dimethylpropanoate]", "Henry solubility constant Hcp": 0.0095},
      {"compound": "CCCCC(=O)OC", "note": "[methyl pentanoate]", "Henry solubility constant Hcp": 0.03},
      {"compound": "CCCCCCC(=O)OC", "note": "[methyl heptanoate]", "Henry solubility constant Hcp": 0.018},
      {"compound": "COC(=O)C(C)C", "note": "[methyl 2-methylpropanoate]", "Henry solubility constant Hcp": 0.026},
      {"compound": "CCC(=O)OC", "note": "[methyl propanoate]", "Henry solubility constant Hcp": 0.055},
      {"compound": "CCCC(=O)OCC", "note": "[ethyl butanoate]", "Henry solubility constant Hcp": 0.029},
      {"compound": "COC(C)=O", "note": "[methyl ethanoate]", "Henry solubility constant Hcp": 0.081},
      {"compound": "CCOC(C)=O", "note": "[ethyl ethanoate]", "Henry solubility constant Hcp": 0.063},
      {"compound": "CCCCOC(=O)CC", "note": "[butyl propanoate]", "Henry solubility constant Hcp": 0.02},
      {"compound": "CCOC(=O)CC", "note": "[ethyl propanoate]", "Henry solubility constant Hcp": 0.041},
      {"compound": "CC(C)CCOC=O", "note": "[3-methylbutyl methanoate]", "Henry solubility constant Hcp": 0.012},
      {"compound": "CCCCCOC(C)=O", "note": "[pentyl ethanoate]", "Henry solubility constant Hcp": 0.027},
      {"compound": "CCCOC=O", "note": "[propyl methanoate]", "Henry solubility constant Hcp": 0.028},
      {"compound": "CCCCCCCCC(=O)OC", "note": "[methyl nonanoate]", "Henry solubility constant Hcp": 0.0082},
      {"compound": "CC(C)COC=O", "note": "[(2-methylpropyl)-methanoate]", "Henry solubility constant Hcp": 0.016},
      {"compound": "CCCC(=O)OC", "note": "[methyl butanoate]", "Henry solubility constant Hcp": 0.042},
      {"compound": "CCCCCOC=O", "note": "[pentyl methanoate]", "Henry solubility constant Hcp": 0.016},
      {"compound": "CCCOC(=O)CC", "note": "[propyl propanoate]", "Henry solubility constant Hcp": 0.029},
      {"compound": "CCCCC(=O)OCC", "note": "[ethyl pentanoate]", "Henry solubility constant Hcp": 0.023},
      {"compound": "CC(=O)OC(C)C", "note": "[2-propyl ethanoate]", "Henry solubility constant Hcp": 0.033},
      {"compound": "CCCOC(C)=O", "note": "[propyl ethanoate]", "Henry solubility constant Hcp": 0.045},
      {"compound": "CCCCOC(=O)CCCC", "note": "[butyl pentanoate]", "Henry solubility constant Hcp": 0.0098},
      {"compound": "CCC(C)OC(C)=O", "note": "(stereo not drawn) [2-butyl ethanoate]", "Henry solubility constant Hcp": 0.023},
      {"compound": "CCCCCCOC=O", "note": "[hexyl methanoate]", "Henry solubility constant Hcp": 0.01},
      {"compound": "CCCCCCCC(=O)OCC", "note": "[ethyl octanoate]", "Henry solubility constant Hcp": 0.017},
      {"compound": "CC(C)OC=O", "note": "[isopropyl methanoate]", "Henry solubility constant Hcp": 0.019},
      {"compound": "CCOC(=O)CC(C)C", "note": "[ethyl 3-methylbutanoate]", "Henry solubility constant Hcp": 0.014},
      {"compound": "CCCCCC(=O)OC", "note": "[methyl hexanoate]", "Henry solubility constant Hcp": 0.026},
      {"compound": "CCCCOC(C)=O", "note": "[butyl ethanoate]", "Henry solubility constant Hcp": 0.035},
      {"compound": "CC(=O)OCCC(C)C", "note": "[3-methylbutyl ethanoate]", "Henry solubility constant Hcp": 0.02},
      {"compound": "CCCC(=O)OC(C)C", "note": "[2-propyl butanoate]", "Henry solubility constant Hcp": 0.018},
      {"compound": "CC(=O)OC(C)(C)C", "note": "[1,1-dimethylethyl ethanoate]", "Henry solubility constant Hcp": 0.011},
      {"compound": "CCC(=O)OC(C)C", "note": "[isopropyl propanoate]", "Henry solubility constant Hcp": 0.018},
      {"compound": "CCCCOC=O", "note": "[butyl methanoate]", "Henry solubility constant Hcp": 0.019}
    ]}
  ]
}
